From ChEMBL document CHEMBL1139065, “Pyrazole-based factor Xa inhibitors containing N-arylpiperidinyl P4 residues” (Bioorg Med Chem Lett, 2007) come the findings set out here.

A value given as a limit tells only on which side of the number the result lay.

As usually defined, the Ki is the dissociation constant of the complex between target and ligand, obtained from inhibition or displacement. A low value points to higher affinity. By clearance is commonly meant the rate of elimination divided by the concentration. A high value points to efficient removal. Usually bioavailability stands for dose-corrected exposure relative to a reference, in per cent. Higher therefore signals good availability. For orientation: half-life means the time needed for the level to fall by half in the phase considered. High values mean slow loss, low ones fast loss. The Papp is the rate of passage across a membrane or cell layer, normalised by area and donor concentration. Broadly, the microsomal CLint is the capacity of the preparation to metabolise the compound, expressed as a volume cleared per time. What is called EC50 is the concentration at which the effect is half-maximal. Low values mean higher potency in that assay, high ones lower potency in that assay.

The target in one series is Coagulation factor X (Homo sapiens, UniProt P00742). Kind of series: Inhibition of human factor 10a.
Sequence of Coagulation factor X (P00742 41-179 limits assumed): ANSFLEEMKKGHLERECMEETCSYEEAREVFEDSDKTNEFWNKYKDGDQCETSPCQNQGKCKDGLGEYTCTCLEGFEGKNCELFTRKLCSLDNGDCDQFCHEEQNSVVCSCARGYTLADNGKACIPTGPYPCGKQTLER
Sequence of Coagulation factor X (P00742 235-488 limits assumed): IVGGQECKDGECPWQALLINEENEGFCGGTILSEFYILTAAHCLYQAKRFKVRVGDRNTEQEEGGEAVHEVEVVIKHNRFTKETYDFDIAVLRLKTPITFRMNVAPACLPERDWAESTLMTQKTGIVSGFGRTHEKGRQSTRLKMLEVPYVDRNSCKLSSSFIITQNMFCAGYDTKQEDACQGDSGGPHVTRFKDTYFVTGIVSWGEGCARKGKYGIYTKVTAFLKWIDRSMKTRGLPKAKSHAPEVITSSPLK
The subject of a further series is Plasma. Put plainly: Anticoagulant potency in human plasma assessed as concentration required to double prothrombin time. The class given is functional.
Series [1] can be described thus: Clearance in dog at 0.5 mg/kg, iv. The settings on record: in vivo.
The nature of the next series: in vivo. The settings on record: dog, po, 0.2 mg/kg.
Series [2] in a line: Half life in dog at 0.2 mg/kg, po. The settings on record: in vivo.
Series [3] is described as follows: Apparent permeability across Caco-2 cells. The settings on record: human. (In general: Caco-2 cells form a polarised layer with tight junctions and transporters.)
Series [4] is described as follows: Metabolic stability in human liver microsomes assessed as intrinsic clearance. It is filed as ADME, Microsome.
The species entered for the next series is Oryctolagus cuniculus. Put plainly: Antithrombotic activity against rabbit arterio-venous shunt thrombosis model. The class given is functional, organism-based.
Series [5] in a line: Half life in human liver microsomes. (In general: Liver microsomes are a subcellular fraction often used to study metabolism.)
For a further series, the target named is Prothrombin (Homo sapiens, UniProt P00734). Put plainly: Inhibition of thrombin.
In another series the target is Trypsin (Homo sapiens, UniProt P07477+P07478+P35030). Kind of series: Inhibition of trypsin. It is filed as protein assay.

On Coagulation factor X, `CCN(CC)Cc1ccccc1N1CCC(N2CCc3c(C(N)=O)nn(-c4ccc(OC)cc4)c3C2=O)CC1` came in with an inhibition constant (Ki) of 0.26 nM. In addition, in the series on Plasma, the PT is 1.5 µM.
At Coagulation factor X, `COc1ccc(-n2nc(C(F)(F)F)cc2C(=O)NC2CCN(c3ccccc3CN(C)C)CC2)cc1` registered an inhibition constant Ki of 8.8 nM.
In turn, `CNCc1ccccc1N1CCC(N2CCc3c(C(N)=O)nn(-c4ccc(OC)cc4)c3C2=O)CC1` gave a Ki on Coagulation factor X of 1 nM. In the series with Plasma, the PT was found to be 1.8 µM.
In the same order, the values of `COc1ccc(-n2nc(C(N)=O)c3c2C(=O)N(C2CCN(c4ccccc4CN4CCC[C@@H]4O)CC2)CC3)cc1` are 0.87 nM and 2.5 µM.
As to `COc1ccc(-n2nc(C(F)(F)F)cc2C(=O)NC2CCN(c3ccccc3CN3CCOCC3)CC2)cc1`, the affinity at Coagulation factor X, expressed as Ki, was 6.6 nM.
Same read-out and setting: to `CS(=O)(=O)c1ccccc1[C@H]1CC[C@@H](NC(=O)c2cc(C(F)(F)F)nn2-c2cccc(CN)c2)CC1` belongs 2000 nM.
The molecule `COc1ccc(-n2nc(C(N)=O)c3c2C(=O)N(C2CCN(c4ccccc4CN(C)C)CC2)CC3)cc1` showed an inhibitory constant (Ki) on Coagulation factor X of 0.41 nM. Besides, the PT with Plasma came out at 1 µM.
Consider `CS(=O)(=O)c1ccccc1N1CCC(NC(=O)c2cc(C(F)(F)F)nn2-c2ccc3onc(N)c3c2)CC1`, for which, in [1], the clearance is 18.3 mL/min/kg. Besides, the bioavailability in the series “in vivo” stood at 24%. For the same molecule, at Coagulation factor X, affinity was put at a Ki of 1.7 nM. For the same molecule, in [2], the half-life was 1.3 h. The Papp in [3] was 1.7 ×10⁻⁶ cm/s. In the series with Plasma, the PT is 2.8 µM. Moreover, the microsomal CLint in series [4] came out at 51 µL/min/mg.
In the case of `COc1ccc(-n2nc(C(N)=O)c3c2C(=O)N(C2CCN(c4ccccc4S(N)(=O)=O)CC2)CC3)cc1`, the affinity on Coagulation factor X, expressed as Ki, was 3.9 nM.
`COc1ccc(-n2nc(C(N)=O)c3c2C(=O)N(C2CCN(c4ccccc4CN4CCOCC4)CC2)CC3)cc1` returned a Ki on Coagulation factor X of 0.57 nM. In the series on Plasma, the PT was found to be 3.5 µM.
At Coagulation factor X, `CS(=O)(=O)c1ccccc1N1CCC(NC(=O)c2cc(C(F)(F)F)nn2-c2ccc3onc(N)c3c2)CC1=O` (configuration not stated) showed a Ki of 92 nM.
`Nc1noc2ccc(-n3nc(C(F)(F)F)cc3C(=O)NC3CCN(c4ccccc4CN4CCCC4)CC3)cc12` gave a clearance in [1] of 48.3 mL/min/kg. The molecule also returned an EC50 in the series filed under Oryctolagus cuniculus of 740 nM. For the same molecule, in the series “in vivo”, the bioavailability stood at 26%. This molecule also displayed an inhibitory constant (Ki) at Coagulation factor X of 0.61 nM. Also, the half-life in series [2] is 5 h. The apparent permeability (Papp) in series [3] came out at 1.3 ×10⁻⁶ cm/s. In the series on Plasma, the PT worked out at 0.84 µM. In series [4], the microsomal CLint came out at 29 µL/min/mg.
For `COc1ccc(-n2nc(C(N)=O)c3c2C(=O)N(C2CCN(c4ccccc4CN4CCCC4)CC2)CC3)cc1`, on Coagulation factor X, the affinity corresponds to a Ki of 0.26 nM. In addition, the PT in the series on Plasma is 1.2 µM.
`CS(=O)(=O)c1ccccc1N1CCC(NC(=O)c2cc(C(F)(F)F)nn2-c2ccccc2CN)CC1`: the inhibition constant Ki at Coagulation factor X was 2.4 nM.
On the same count and under the same terms, to `CS(=O)(=O)c1ccccc1C1=CCC(NC(=O)c2cc(C(F)(F)F)nn2-c2cccc(CN)c2)CC1` (configuration not stated) belongs 3 nM.
`CNCc1ccccc1N1CCC(NC(=O)c2cc(C(F)(F)F)nn2-c2ccc3onc(N)c3c2)CC1`: the clearance in [1] was 107 mL/min/kg. In the series “in vivo”, this molecule came in with a bioavailability of 1.7%. Moreover, at Coagulation factor X, the inhibition constant (Ki) stood at 0.67 nM. In addition, in [2], the half-life was 0.3 h. Besides, the Papp in series [3] worked out at 0.1 ×10⁻⁶ cm/s. Moreover, the PT with Plasma was 1.2 µM.
Turning to `COc1ccc(-n2nc(C(N)=O)c3c2C(=O)N(C2CCN(c4ccccc4CN(C)S(C)(=O)=O)CC2)CC3)cc1`, the inhibitory constant (Ki) on Coagulation factor X is 81 nM.
Consider `Nc1noc2ccc(-n3nc(C(F)(F)F)cc3C(=O)NC3CCN(c4ccccc4CN4CCC[C@H]4O)CC3)cc12`, for which the clearance in series [1] is 36.7 mL/min/kg. At Coagulation factor X, this molecule returned a Ki of 0.73 nM. Besides, in [3], the apparent permeability (Papp) worked out at 0.2 ×10⁻⁶ cm/s. In addition, the PT in the series on Plasma stood at 0.83 µM. Further, in series [4], the intrinsic metabolic clearance (microsomal CLint) was 40 µL/min/mg.
On Coagulation factor X, `COc1ccc(-n2nc(C(F)(F)F)cc2C(=O)NC2CCN(c3ccccc3CN3CCCC3)CC2)cc1` showed a Ki of 29 nM.
In [1], `COc1ccc(-n2nc(C(N)=O)c3c2C(=O)N(C2CCN(c4ccccc4S(C)(=O)=O)CC2)CC3)cc1` showed a clearance of 3.83 mL/min/kg. The half-life in series [5] is 1.95 h; in [2], 0.8 h. Also, the bioavailability in the series “in vivo” worked out at 78%. Further, the figures for the Ki on Coagulation factor X, at Prothrombin and at Trypsin were 0.35 nM, 1200 nM and greater than 20000 nM, respectively. In [3], the apparent permeability (Papp) was determined as 1.5 ×10⁻⁶ cm/s. For the same molecule, in the series with Plasma, the PT is 4.2 µM.
As to `CS(=O)(=O)c1ccccc1N1CCC(NC(=O)c2cc(C(F)(F)F)nn2-c2cccc(CN)c2)CC1`, the Ki at Coagulation factor X was 4.9 nM.
As for `CCN(C)Cc1ccccc1N1CCC(NC(=O)c2cc(C(F)(F)F)nn2-c2ccc3onc(N)c3c2)CC1`, the clearance in series [1] was 71.7 mL/min/kg. In “in vivo”, this molecule returned a bioavailability of 23%. On Coagulation factor X, this molecule returned a Ki of 0.7 nM. For the same molecule, the half-life in series [2] was 2.5 h. For the same molecule, the Papp in series [3] came out at 2.7 ×10⁻⁶ cm/s. Also, in the series with Plasma, the PT was found to be 1.1 µM. Moreover, the intrinsic clearance (microsomal CLint) in [4] is 29 µL/min/mg.
In the case of `COc1ccc(-n2nc(C(F)(F)F)cc2C(=O)NC2CCN(c3ccccc3S(C)(=O)=O)CC2)cc1`, affinity on Coagulation factor X was put at a Ki of 14 nM.
On to `COc1ccc(-n2nc(C(N)=O)c3c2C(=O)N(C2CCN(c4ccccc4CN(C)C(C)=O)CC2)CC3)cc1`, for which, at Coagulation factor X, the inhibition constant (Ki) is 23 nM.
On the same count and under the same terms, the result for `CS(=O)(=O)c1ccccc1[C@H]1CC[C@H](NC(=O)c2cc(C(F)(F)F)nn2-c2cccc(CN)c2)CC1` reads 5.7 nM.
